From patent publication US9233957B2, “5-carbamoyl-adamantan-2-yl amide derivatives, pharmaceutically acceptable salts thereof and preparation process thereof” (SK BIOPHARMACEUTICALS CO., LTD., priority 2011, dated 2016)

How the values were obtained:
Human 11b-HSD1 = biological target: T1, Human 11b-HSD1 (Homo sapiens, UniProt P28845); assay: Inhibition of cortisone-to-cortisol conversion in CHO-K1 cells over-expressing human 11b-HSD1 (HTRF cortisol assay); type: cell-based; settings: CHO-K1 cells over-expressing human 11b-HSD1, 160 nM cortisone, 3 hours, 37° C.
T1 construct: expressed in transfected cells
T1 sequence (P28845 whole entry): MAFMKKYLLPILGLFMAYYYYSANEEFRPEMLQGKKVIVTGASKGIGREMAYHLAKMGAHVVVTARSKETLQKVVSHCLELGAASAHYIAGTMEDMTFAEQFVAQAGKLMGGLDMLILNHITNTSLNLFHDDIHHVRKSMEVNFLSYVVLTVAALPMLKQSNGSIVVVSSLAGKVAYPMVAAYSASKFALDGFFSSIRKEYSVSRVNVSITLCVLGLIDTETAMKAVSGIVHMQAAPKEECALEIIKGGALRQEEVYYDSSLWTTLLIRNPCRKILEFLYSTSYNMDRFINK
Excerpt: (§1) cDNA (human: Accession No. U12978.2; mouse: Accession No. NM_008288.2) coding the full-length amino acid sequence of 11β-HSD1 in a human and a mouse was incorporated into pMSCVpuro (from Clontech. Co. Ltd.), a vector of expressing a mammalian cell for the production of a retrovirus, and the resulting product was introduced into a GP2-293 cell (from Clontech Co. Ltd.), a retrovirus packing cell line together with pVSV-G vector (from Clontech Co. Ltd.) by using a Lipotamine plus reagent (from Invitrogen Co. Ltd.) in accordance with the method set forth in the appendix (by using HTRF cortisol assay kit from Cisbio assays Co., Ltd., catalog No. 62CO2PEB) and stabilized for 48 hours. Thereafter, viruses being obtained from those cells were used to infect CHO-K1 cell (from Korean Cell Line Bank, KCLB No. 10061) and in 24 hours, the cells were treated with 10 μg/ml pumycin (from Sigma Co. Ltd.) for two weeks to produce a stabilized cell system wherein each 11β-HSD1 in humans or in mice was over-expressed. When the cells being maintained, 5 μg/ml of puromycin was put into the medium and used (RPMI (Gibco), 37° C.). • Reference material: The EMBO Journal (2008) 27, 642-653
(§2) The obtained cells with 11b-HSD1 in a human and a mouse being over-expressed were sub-cultured in a 96-well plate with a cell number being 3×10^4 cells per well and stabilized for 24 hours [RPMI (Gibco), at 37° C., as being used in 5 days after thawing]. After a medium as diluted with DMSO including 160 nM of cortisone (from Sigma Co. Ltd.) and a test compound at a different concentration was put into each well in an amount of 200 ul, the well was cultured in a cell cultivator at 37° C. for 3 hours. 10 ul of the cultured solution was put into a 384 well plate and the amount of cortisol as generated was measured using a cortisol kit (from Cisbio international Co. Ltd, HTRF assay) in accordance with the method set forth in the appended manual.
(§3) As a control group, 160 nM of cortisone and 1% of DMSO were put into a corresponding well. The ground value was obtained from a well including only 160 nM of cortisone and 1% of DMSO without cells just like the control group. The calculation for a % inhibition level was made following the manual as appended. • Reference material: The Journal of Steroid Biochemistry and Molecular Biology, Volume 104, Issues 3-5, May 2007, Pages 123-129 • Bioorganic & Medicinal Chemistry Letters Volume 19, Issue 10, 15 May 2009, Pages 2674-2678
(§4) Like the analyzing method as stated above, the efficacy of inhibiting 11b-HSD1 was calculated as IC50 and the results are shown in Table 1: […]

Mouse 11b-HSD1 = biological target: T2, Mouse 11b-HSD1 (Mus musculus, UniProt P50172); assay: Inhibition of cortisone-to-cortisol conversion in CHO-K1 cells over-expressing mouse 11b-HSD1 (HTRF cortisol assay); type: cell-based; settings: CHO-K1 cells over-expressing mouse 11b-HSD1, 160 nM cortisone, 3 hours, 37° C.
T2 construct: expressed in transfected cells
T2 sequence (P50172 whole entry): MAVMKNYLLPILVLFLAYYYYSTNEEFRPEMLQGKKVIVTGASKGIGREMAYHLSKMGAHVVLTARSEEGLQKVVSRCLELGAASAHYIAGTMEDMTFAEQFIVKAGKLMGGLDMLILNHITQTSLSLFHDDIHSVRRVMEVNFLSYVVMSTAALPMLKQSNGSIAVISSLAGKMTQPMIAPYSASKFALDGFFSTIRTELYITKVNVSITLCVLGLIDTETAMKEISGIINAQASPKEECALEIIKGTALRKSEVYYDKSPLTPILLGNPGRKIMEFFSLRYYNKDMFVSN
Excerpt: as §1, §2, §3, §4

| IC50 (Human 11b-HSD1) | IC50 (Mouse 11b-HSD1) | Structure (SMILES) |
| --- | --- | --- |
| < 100 nM | 100 to 500 nM | Cn1c(C(=O)N[C@H]2C3CC4CC2C[C@](C(N)=O)(C4)C3)ccc1-c1ccc(Cl)cc1 [Example 35, N-(5-carbamoyl-2-adamantyl)-5-(4-chlorophenyl)-1-methylpyrrole-2-carboxamide] |
| < 100 nM | 100 to 500 nM | Cc1ccc(C(=O)N[C@H]2C3CC4CC2C[C@](C(N)=O)(C4)C3)s1 [Example 24, N-(5-carbamoyl-2-adamantyl)-5-methylthiophene-2-carboxamide] |
| < 100 nM | < 100 nM | NC(=O)[C@]12CC3CC(C1)[C@@H](NC(=O)c1ccc(-c4cccc(Cl)c4)s1)C(C3)C2 [Example 42, N-(5-carbamoyl-2-adamantyl)-5-(3-chlorophenyl)thiophene-2-carboxamide] |
| < 100 nM | 100 to 500 nM | CCC(C)Oc1cccc2ccc(C(=O)N[C@H]3C4CC5CC3C[C@](C(N)=O)(C5)C4)nc12 (stereo partly shown) [Example 56, 8-butan-2-yloxy-N-(5-carbamoyl-2-adamantyl)quinoline-2-carboxamide] |
| < 100 nM | < 100 nM | CCCOc1cccc(C(=O)N[C@H]2C3CC4CC2C[C@](C(N)=O)(C4)C3)n1 [Example 46, N-(5-carbamoyl-2-adamantyl)-6-propoxypyridine-2-carboxamide] |
| < 100 nM | 100 to 500 nM | NC(=O)[C@]12CC3CC(C1)[C@@H](NC(=O)c1ccc(-c4cc(Cl)cc(Cl)c4)o1)C(C3)C2 [Example 32, N-(5-carbamoyl-2-adamantyl)-5-(3,5-dichlorophenyl)furan-2-carboxamide] |
| < 100 nM | < 100 nM | NC(=O)[C@]12CC3CC(C1)[C@@H](NC(=O)c1ccc(-c4cccs4)s1)C(C3)C2 [Example 21, N-(5-carbamoyl-2-adamantyl)-5-thiophen-2-yl-thiophene-2-carboxamide] |
| < 100 nM | 100 to 500 nM | Cc1ccc(-c2ccc(C(=O)N[C@H]3C4CC5CC3C[C@](C(N)=O)(C5)C4)o2)cc1 [Example 4, N-(5-carbamoyl-2-adamantyl)-5-(4-methylphenyl)furan-2-carboxamide] |
| 100 to 500 nM | > 500 nM | NC(=O)[C@]12CC3CC(C1)[C@@H](NC(=O)c1cccs1)C(C3)C2 [Example 22, N-(5-carbamoyl-2-adamantyl)thiophene-2-carboxamide] |
| > 500 nM | > 500 nM | NC(=O)[C@]12CC3CC(C1)[C@@H](NC(=O)c1cc(-c4cccc(F)c4)on1)C(C3)C2 [Example 12, N-(5-carbamoyl-2-adamantyl)-5-(3-fluorophenyl)-1,2-oxazole-3-carboxamide] |
| < 100 nM | 100 to 500 nM | NC(=O)[C@]12CC3CC(C1)[C@@H](NC(=O)c1ccc(-c4ccc(Cl)c(Cl)c4)o1)C(C3)C2 [Example 31, N-(5-carbamoyl-2-adamantyl)-5-(3,4-dichlorophenyl)furan-2-carboxamide] |
| < 100 nM | < 100 nM | CN(C)c1cccc(C(=O)N[C@H]2C3CC4CC2C[C@](C(N)=O)(C4)C3)n1 [Example 57, N-(5-carbamoyl-2-adamantyl)-6-(dimethylamino)pyridine-2-carboxamide] |
| > 500 nM | > 500 nM | COc1ccccc1-c1cc(C(=O)N[C@H]2C3CC4CC2C[C@](C(N)=O)(C4)C3)no1 [Example 7, N-(5-carbamoyl-2-adamantyl)-5-(2-methoxyphenyl)-1,2-oxazole-3-carboxamide] |

| Structure (SMILES) | IC50 (Human 11b-HSD1) | IC50 (Mouse 11b-HSD1) |
| --- | --- | --- |
| NC(=O)[C@]12CC3CC(C1)[C@@H](NC(=O)c1ccc(-c4ccc(Cl)cc4)s1)C(C3)C2 [Example 41, N-(5-carbamoyl-2-adamantyl)-5-(4-chlorophenyl)thiophene-2-carboxamide] | < 100 nM | 100 to 500 nM |
